Measured values as given in patent publication US9382204B2, “Inhibitors targeting the DNA-binding domain of human STAT3 for treatment of metastatic cancers” (Indiana University Research and Technology Corporation, priority 2013, dated 2016).

System: STAT3
Test: STAT3-dependent luciferase reporter assay in MDA-MB-231-STAT3 stable cells
Assay type: cell-based, human
Details: 20 μM; for Rel. luciferase activity (%) 1: experiment 1, relative to DMSO; for Rel. luciferase activity (%) 2: experiment 2, relative to DMSO; for Rel. luciferase activity (%) 3: experiment 3, relative to DMSO; for Rel. luciferase activity (%) Mean: mean of experiments, relative to DMSO; for inhibition of luciferase expression compared to DMSO vehicle control: significant = p value less than 0.05
Experimental: FIG. 12. Identification of active inS3-54 analogues. (A) Effects of inS3-54 analogues on STAT3-dependent luciferase expression. MDA-MB-231 cells with stable STAT3-dependent luciferase expression were treated with DMSO control, 20 μM inSTAT3-54 or its analogues (A1-A79), followed by measurement of luciferase activity. (*p<0.05; **p<0.01; ***p<0.001).
MDA-MB-231-STAT3 stable cell line with high level of STAT3-dependent luciferase expression was exposed to candidate compounds at 20 μM in DMSO for 48 hours based on previous studies, and luciferase activity was measured using a luciferase assay kit (Promega, USA), following manufacturer's instructions. The final DMSO concentration in this and following assays was 0.1% (vol/vol).

Row | Compound | Rel. luciferase activity (%) 1 [%] | Rel. luciferase activity (%) 2 [%] | Rel. luciferase activity (%) 3 [%] | Rel. luciferase activity (%) Mean [%] | inhibition of luciferase expression compared to DMSO vehicle control
1 | O=C(O)c1cccc(N2C(=O)C(=Cc3ccc(-c4cc(Cl)ccc4Cl)o3)C=C2c2ccccc2)c1 [Compound A2] | 120.3 | 107.5 | 114.1 | 114.0 | 
2 | Cc1ccc(N2C(=O)C(=Cc3ccc(-c4cc(Cl)ccc4Cl)o3)C=C2c2ccccc2)cc1[N+](=O)[O-] [Compound A3] | 116.7 | 104.0 | 101.3 | 107.3 | 
3 | Cc1ccc(N2C(=O)C(=Cc3ccc(-c4ccc([N+](=O)[O-])cc4)o3)C=C2c2ccccc2)cc1 [Compound A4] | 117.8 | 108.4 | 103.4 | 109.9 | 
4 | Cc1ccc(N2C(=O)C(=Cc3ccc(-c4ccc([N+](=O)[O-])cc4)o3)C=C2c2ccccc2)cc1C [Compound A5] | 113.5 | 109.3 | 92.2 | 105.0 | 
5 | O=C1C(=Cc2ccc(-c3ccc([N+](=O)[O-])cc3)o2)C=C(c2ccccc2)N1c1ccc(Cl)cc1 [Compound A6] | 110.9 | 112.7 | 71.0 | 98.2 | 
6 | COc1ccc(N2C(=O)C(=Cc3ccc(-c4ccc([N+](=O)[O-])cc4)o3)C=C2c2ccccc2)cc1 [Compound A7] | 99.6 | 109.4 | 72.3 | 93.8 | 
7 | CC(=O)c1cccc(N2C(=O)C(=Cc3ccc(-c4ccc([N+](=O)[O-])cc4)o3)C=C2c2ccccc2)c1 [Compound A8] | 71.9 | 102.6 | 57.5 | 77.3 | 
8 | Cc1ccccc1N1C(=O)C(=Cc2ccc(-c3ccc([N+](=O)[O-])cc3)o2)C=C1c1ccccc1 [Compound A9] | 78.4 | 95.8 | 96.2 | 90.2 | 
9 | O=C1C(=Cc2ccc(-c3ccc([N+](=O)[O-])cc3)o2)C=C(c2ccccc2)N1c1cccc(Cl)c1 [Compound A10] | 87.4 | 110.4 | 103.7 | 100.5 | 
10 | O=C1C(=Cc2ccc(-c3ccc([N+](=O)[O-])cc3)o2)C=C(c2ccccc2)N1c1ccc(F)cc1 [Compound A11] | 73.5 | 101.5 | 91.7 | 88.9 | 
11 | COc1cccc(N2C(=O)C(=Cc3ccc(-c4ccc([N+](=O)[O-])cc4)o3)C=C2c2ccccc2)c1 [Compound A12] | 34.2 | 105.8 | 55.4 | 65.1 | 
12 | O=C1C(=Cc2ccc(-c3ccc([N+](=O)[O-])cc3)o2)C=C(c2ccccc2)N1c1ccccc1Cl [Compound A14] | 140.4 | 129.3 | 72.3 | 114.0 | 
13 | O=C1C(=Cc2ccc(Cl)cc2)C=C(c2ccccc2)N1c1ccccc1 [Compound A15] | 98.4 | 99.9 | 60.1 | 86.1 | 
14 | O=C1C(=Cc2ccc(Cl)cc2)C=C(c2ccccc2)N1c1ccc(Cl)cc1 [Compound A16] | 55.8 | 91.2 | 57.1 | 68.0 | 
15 | COc1ccc(N2C(=O)C(=Cc3ccc(Cl)cc3)C=C2c2ccccc2)cc1 [Compound A17] | 103.2 | 120.5 | 104.2 | 109.3 | 
16 | COC(=O)c1cccc(N2C(=O)C(=Cc3ccc(Cl)cc3)C=C2c2ccccc2)c1 [Compound A19] | 45.7 | 101.8 | 60.1 | 69.2 | 
17 | O=C1C(=Cc2ccc(Cl)cc2)C=C(c2ccccc2)N1c1ccc(-c2ccccc2)cc1 [Compound A20] | 63.2 | 85.1 | 63.8 | 70.7 | significantly inhibited

Row | Compound | Rel. luciferase activity (%) 1 [%] | Rel. luciferase activity (%) 2 [%] | Rel. luciferase activity (%) 3 [%] | Rel. luciferase activity (%) Mean [%] | inhibition of luciferase expression compared to DMSO vehicle control
18 | CC(C)(C)c1ccc(N2C(=O)C(=Cc3ccc(Cl)cc3)C=C2c2ccccc2)cc1 [Compound A21] | 158.0 | 174.7 | 159.1 | 163.9 | 
19 | O=C1C(=Cc2ccc(Cl)cc2)C=C(c2ccccc2)N1c1ccc(F)cc1 [Compound A22] | 97.9 | 114.0 | 61.1 | 91.0 | 
20 | COC(=O)c1ccc(N2C(=O)C(=Cc3ccc(Cl)cc3)C=C2c2ccccc2)cc1 [Compound A23] | 99.2 | 103.2 | 69.4 | 90.6 | 
21 | Cc1ccc(N2C(=O)C(=Cc3ccc(Cl)cc3)C=C2c2ccccc2)cc1[N+](=O)[O-] [Compound A25] | 74.6 | 124.2 | 87.8 | 95.6 | 
22 | O=C1C(=Cc2ccc(Cl)cc2)C=C(c2ccccc2)N1c1ccccc1Cl [Compound A27] | 48.5 | 83.6 | 74.2 | 68.8 | significantly inhibited
23 | O=C1C(=Cc2ccc(Cl)cc2)C=C(c2ccccc2)N1c1ccc(Nc2ccccc2)cc1 [Compound A28] | 67.2 | 106.0 | 62.1 | 78.4 | 
24 | Cc1ccc(N2C(=O)C(=Cc3ccc([N+](=O)[O-])cc3)C=C2c2ccccc2)cc1C [Compound A29] | 100.7 | 170.4 | 113.3 | 128.1 | 
25 | Cc1ccc(N2C(=O)C(=Cc3ccc([N+](=O)[O-])cc3)C=C2c2ccccc2)cc1C [Compound A30] | 89.6 | 83.9 | 61.2 | 78.2 | 
26 | O=C1C(=Cc2ccc([N+](=O)[O-])cc2)C=C(c2ccccc2)N1c1ccc(Cl)cc1 [Compound A31] | 122.8 | 124.5 | 49.9 | 99.1 | 
27 | COc1ccccc1N1C(=O)C(=Cc2ccc([N+](=O)[O-])cc2)C=C1c1ccccc1 [Compound A32] | 58.2 | 99.2 | 58.6 | 72.0 | 
28 | COc1ccc(N2C(=O)C(=Cc3ccc([N+](=O)[O-])cc3)C=C2c2ccccc2)cc1 [Compound A33] | 33.8 | 92.3 | 99.1 | 75.1 | 
29 | COC(=O)c1cccc(N2C(=O)C(=Cc3ccc([N+](=O)[O-])cc3)C=C2c2ccccc2)c1 [Compound A34] | 61.1 | 103.6 | 80.8 | 81.9 | 
30 | O=C1C(=Cc2ccc([N+](=O)[O-])cc2)C=C(c2ccccc2)N1c1ccc(-c2ccccc2)cc1 [Compound A35] | 51.3 | 109.5 | 112.6 | 91.1 | 
31 | O=C1C(=Cc2ccc([N+](=O)[O-])cc2)C=C(c2ccccc2)N1Cc1ccccc1 [Compound A36] | 46.4 | 87.4 | 66.3 | 66.7 | significantly inhibited
32 | O=C1C(=Cc2ccc([N+](=O)[O-])cc2)C=C(c2ccccc2)N1c1cccc(Cl)c1 [Compound A38] | 66.5 | 119.9 | 88.8 | 91.8 | 
33 | O=C1C(=Cc2ccc([N+](=O)[O-])cc2)C=C(c2ccccc2)N1c1ccc(Cl)c(Cl)c1 [Compound A39] | 119.6 | 129.6 | 65.9 | 105.1 | 
34 | O=C1C(=Cc2ccc([N+](=O)[O-])cc2)C=C(c2ccccc2)N1c1ccc(F)cc1 [Compound A40] | 126.5 | 101.5 | 43.0 | 90.3 | 
